{
  "source": "paper PMC7104201",
  "about": "(iScience, 2020)",
  "target": "CatB (Homo sapiens, UniProt P07858)",
  "type": "biochemical",
  "details": "pH 5",
  "data": [
    {"substance": "CA-074 methyl ester [CatB inhibitor]", "values": [
      {"measurement": "blocking of CatB-dependent cleavage of EBOV GP", "value": "effectively blocked"}
    ]}
  ]
}
